# Results from patent US8969352B2, “Substituted 2-azabicycles and their use as orexin receptor modulators” (Janssen Pharmaceutica NV, priority 2013, dated 2015).
# pKi: −log10 of the molar value.
# How the values were obtained:
# human orexin 1 receptor = human orexin 1 receptor (Homo sapiens, UniProt O43613); assay: Human orexin 1 receptor radioligand binding; conditions: CHO cells stably expressing human orexin 1 receptor; competitive radioligand binding, apparent Ki; read-out: hOX1 Ki
# Protocol: (§1) Rat and Human Orexin 1 Receptor Radioligand Binding Studies
# (§2) After centrifugation (2K×G, 5 min at 4° C.), the supernatant was aspirated and the pellets frozen and stored at −80° C. […] Each cell pellet from a 15 cm plate was resuspended in 10 mL, stored on ice, and homogenized for 45 sec prior to addition to the reactions. […] The final concentration of DMSO in the reactions is equal to or less than 0.1%. Total and nonspecific binding was determined in the absence and presence of 10 μM almorexant. The total volume of each reaction is 200 μL (20 μL of diluted compounds, 80 μL of [^3H]-(1-(5-(2-fluoro-phenyl)-2-methyl-thiazol-4-yl)-1-((S)-2-(5-phenyl-(1,3,4)oxadiazol-2-ylmethyl)-pyrrolidin-1-yl)-methanone) diluted in PBS and 100 μL of the cell suspension). […] The plates were washed 3 times by aspirating 30 ml PBS through the plates. Plates were dried in 55° C. oven for 60 min, scintillation fluid was added, and the radioactivity was counted on a Topcount (Packard).
# rat orexin 1 receptor = rat orexin 1 receptor (Rattus norvegicus, UniProt P56718); assay: Rat orexin 1 receptor radioligand binding; conditions: HEK293 cells stably expressing rat orexin 1 receptor; competitive radioligand binding, apparent Ki; read-out: rOX1 Ki
# Protocol: as §1, §2
# human orexin 2 receptor = human orexin 2 receptor (Homo sapiens (Human), UniProt O43614); assay: Human orexin 2 receptor radioligand binding; conditions: HEK293 stably expressing human orexin 2 receptor; [3H]-EMPA competitive binding, apparent Ki; read-out: hOX2 Ki
# Sequence of human orexin 2 receptor (O43614 whole entry): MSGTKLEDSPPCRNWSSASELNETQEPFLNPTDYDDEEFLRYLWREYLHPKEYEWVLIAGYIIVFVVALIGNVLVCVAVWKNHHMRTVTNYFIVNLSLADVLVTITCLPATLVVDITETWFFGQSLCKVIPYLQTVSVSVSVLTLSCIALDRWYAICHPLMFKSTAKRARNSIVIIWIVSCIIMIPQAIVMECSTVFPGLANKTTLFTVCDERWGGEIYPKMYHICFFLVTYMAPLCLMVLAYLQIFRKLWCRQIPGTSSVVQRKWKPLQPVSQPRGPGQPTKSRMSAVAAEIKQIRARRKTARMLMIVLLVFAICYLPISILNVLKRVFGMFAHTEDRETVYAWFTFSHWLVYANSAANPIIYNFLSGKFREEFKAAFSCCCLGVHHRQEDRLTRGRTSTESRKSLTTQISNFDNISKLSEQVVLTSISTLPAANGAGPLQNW
# Protocol: Human Orexin 2 Receptor Radioligand Binding Studies
# as §2, with “sec just” for “sec”, “reactions. Competition binding experiments in 96 well polypropylene plates were performed using [^3H]-EMPA (Moraveck Corporation, specific activity=29.6 Ci/mmol), diluted to a 5 nM concentration in PBS (2 nM final concentration).” for “reactions.”, “[^3H]-EMPA” for “[^3H]-(1-(5-(2-fluoro-phenyl)-2-methyl-thiazol-4-yl)-1-((S)-2-(5-phenyl-(1,3,4)oxadiazol-2-ylmethyl)-pyrrolidin-1-yl)-methanone)”
SMILES,pKi (human orexin 1 receptor),pKi (rat orexin 1 receptor),pKi (human orexin 2 receptor)
"O=C(c1ccccc1-n1nccn1)N1CC2CC(Oc3cnc(C(F)(F)F)cn3)C1C2 (racemic) [Example 1, (R/S)-(2-(2H-1,2,3-triazol-2-yl)phenyl)(6-((5-(trifluoromethyl)pyrazin-2-yl)oxy)-2-azabicyclo[2.2.1]heptan-2-yl)methanone]",6.92,7.13,–
"Cc1ccc(-n2nccn2)c(C(=O)N2CC3CC(Oc4cnc(C(F)(F)F)cn4)C2C3)n1 (racemic) [Example 2, (R/S)-(6-methyl-3-(2H-1,2,3-triazol-2-yl)pyridin-2-yl)(6-((5-(trifluoromethyl)pyrazin-2-yl)oxy)-2-azabicyclo[2.2.1]heptan-2-yl)methanone]",6.47,6.70,5.00
CCOc1ncc2ccccc2c1C(=O)N1CC2CC(Oc3cnc(C(F)(F)F)cn3)C1C2 (racemic) [Example 3],6.91,7.20,5.05
Cc1cnc(C(=O)N2CC3CC(Oc4cnc(C(F)(F)F)cn4)C2C3)c(-n2nccn2)c1 (racemic) [Example 4],–,6.08,< 5.00
"O=C(c1ccccc1-n1nccn1)N1CC2CC(Oc3ccc(C(F)(F)F)cn3)C1C2 (racemic) [Example 7, (R/S)-(2-(2H-1,2,3-triazol-2-yl)phenyl)(6-((5-(trifluoromethyl)pyridin-2-yl)oxy)-2-azabicyclo[2.2.1]heptan-2-yl)methanone]",7.92,7.68,–
"CCOc1ncc2ccccc2c1C(=O)N1CC2CC(Oc3ccc(C(F)(F)F)cn3)C1C2 (racemic) [Example 8, (R/S)-(3-ethoxyisoquinolin-4-yl)(6-((5-(trifluoromethyl)pyridin-2-yl)oxy)-2-azabicyclo[2.2.1]heptan-2-yl)methanone]",–,–,5.84
"CCOc1ccc2cccnc2c1C(=O)N1CC2CC(Oc3ccc(C(F)(F)F)cn3)C1C2 (racemic) [Example 10, (R/S)-(7-ethoxyquinolin-8-yl)(6-((5-(trifluoromethyl)pyridin-2-yl)oxy)-2-azabicyclo[2.2.1]heptan-2-yl)methanone]",7.57,7.74,6.28
"COc1ccc(C(=O)N2CC3CC(Oc4ccc(C(F)(F)F)cn4)C2C3)c(-c2ncccn2)c1 (racemic) [Example 12, (R/S)-(4-methoxy-2-(pyrimidin-2-yl)phenyl)(6-((5-(trifluoromethyl)pyridin-2-yl)oxy)-2-azabicyclo[2.2.1]heptan-2-yl)methanone]",7.23,7.36,< 5.00
COc1cccc(-n2nccn2)c1C(=O)N1CC2CC(Oc3ccc(C(F)(F)F)cn3)C1C2 (racemic) [Example 15],–,–,6.64
"O=C(c1cccc(F)c1-n1nccn1)N1CC2CC(Oc3ccc(C(F)(F)F)cn3)C1C2 (racemic) [Example 16, (R/S)-(3-fluoro-2-(2H-1,2,3-triazol-2-yl)phenyl)(6-((5-(trifluoromethyl)pyridin-2-yl)oxy)-2-azabicyclo[2.2.1]heptan-2-yl)methanone]",–,8.10,–
"Cc1cccc(C(=O)N2CC3CC(Oc4ccc(C(F)(F)F)cn4)C2C3)c1-n1nccn1 (racemic) [Example 17, (R/S)-(3-methyl-2-(2H-1,2,3-triazol-2-yl)phenyl)(6-((5-(trifluoromethyl)pyridin-2-yl)oxy)-2-azabicyclo[2.2.1]heptan-2-yl)methanone]",–,–,6.63
"O=C(c1c(F)cccc1-n1nccn1)N1CC2CC(Oc3ccc(C(F)(F)F)cn3)C1C2 (racemic) [Example 18, (R/S)-(2-fluoro-6-(2H-1,2,3-triazol-2-yl)phenyl)(6-((5-(trifluoromethyl)pyridin-2-yl)oxy)-2-azabicyclo[2.2.1]heptan-2-yl)methanone]",7.64,7.60,–
"O=C(c1ccc(F)cc1-c1ncccn1)N1CC2CC(Oc3ccc(C(F)(F)F)cn3)C1C2 (racemic) [Example 20, (R/S)-(4-fluoro-2-(pyrimidin-2-yl)phenyl)(-6-((5-(trifluoromethyl)pyridin-2-yl)oxy)-2-azabicyclo[2.2.1]heptan-2-yl)methanone]",–,–,5.57
"O=C(c1ccccc1-n1cnnc1)N1CC2CC(Oc3ccc(C(F)(F)F)cn3)C1C2 (racemic) [Example 21, (R/S)-(2-(4H-1,2,4-triazol-4-yl)phenyl)(6-((5-(trifluoromethyl)pyridin-2-yl)oxy)-2-azabicyclo[2.2.1]heptan-2-yl)methanone]",–,< 5.00,< 5.00
"O=C(c1c(F)cccc1-c1ncccn1)N1C[C@H]2C[C@@H](Oc3ccc(Br)cn3)[C@@H]1C2 [Example 47, ((1S,4R,6R)-6-((5-bromopyridin-2-yl)oxy)-2-azabicyclo[2.2.1]heptan-2-yl)(2-fluoro-6-(pyrimidin-2-yl)phenyl)methanone]",7.96,8.15,–
"O=C(c1ccccc1-n1nccn1)N1C[C@H]2C[C@@H](Nc3ccc(C(F)(F)F)cn3)[C@@H]1C2 [Example 53, (2-(2H-1,2,3-triazol-2-yl)phenyl)((1S,4S,6R)-6-((5-(trifluoromethyl)pyridin-2-yl)amino)-2-azabicyclo[2.2.1]heptan-2-yl)methanone]",8.52,8.52,–

# Second part, the compound after the results:
pKi (human orexin 1 receptor),pKi (rat orexin 1 receptor),pKi (human orexin 2 receptor),SMILES
–,–,5.68,"O=C(c1ccc(F)cc1-c1ncccn1)N1C[C@H]2C[C@@H](Oc3ccc(C(F)(F)F)cn3)[C@@H]1C2 [Example 26, (4-fluoro-2-(pyrimidin-2-yl)phenyl)((1S,4R,6R)-6-((5-(trifluoromethyl)pyridin-2-yl)oxy)-2-azabicyclo[2.2.1]heptan-2-yl)methanone]"
–,6.15,< 5.00,"COc1c(F)cccc1C(=O)N1C[C@H]2C[C@@H](Oc3ccc(C(F)(F)F)cn3)[C@@H]1C2 [Example 31, (3-fluoro-2-methoxyphenyl)((1S,4R,6R)-6-((5-(trifluoromethyl)pyridin-2-yl)oxy)-2-azabicyclo[2.2.1]heptan-2-yl)methanone]"
8.40,8.52,–,"Cc1cccc(C(=O)N2C[C@H]3C[C@@H](Oc4ccc(C(F)(F)F)cn4)[C@@H]2C3)c1-c1ncco1 [Example 32, (3-methyl-2-(oxazol-2-yl)phenyl)((1S,4R,6R)-6-((5-(trifluoromethyl)pyridin-2-yl)oxy)-2-azabicyclo[2.2.1]heptan-2-yl)methanone]"
–,8.10,–,"O=C(c1cccc(F)c1-n1nccn1)N1C[C@H]2C[C@@H](Oc3ccc(C(F)(F)F)cn3)[C@@H]1C2 [Example 35, (3-fluoro-2-(2H-1,2,3-triazol-2-yl)phenyl)((1S,4R,6R)-6-((5-(trifluoromethyl)pyridin-2-yl)oxy)-2-azabicyclo[2.2.1]heptan-2-yl)methanone]"
7.96,8.30,–,"O=C(c1ccccc1-n1nccn1)N1C[C@H]2C[C@@H](Oc3ccc(C(F)(F)F)cn3)[C@@H]1C2 [Example 36, (2-(2H-1,2,3-triazol-2-yl)phenyl)((1S,4R,6R)-6-((5-(trifluoromethyl)pyridin-2-yl)oxy)-2-azabicyclo[2.2.1]heptan-2-yl)methanone]"
–,5.36,< 5.00,"Cc1cnn(C)c1-c1ccccc1C(=O)N1C[C@H]2C[C@@H](Oc3ccc(C(F)(F)F)cn3)[C@@H]1C2 [Example 41, (2-(1,4-dimethyl-1H-pyrazol-5-yl)phenyl)((1S,4R,6R)-6-((5-(trifluoromethyl)pyridin-2-yl)oxy)-2-azabicyclo[2.2.1]heptan-2-yl)methanone]"
7.92,8.00,–,"O=C(c1c(F)cccc1-n1nccn1)N1C[C@H]2C[C@@H](Oc3ccc(C(F)(F)F)cn3)[C@@H]1C2 [Example 46, (2-fluoro-6-(2H-1,2,3-triazol-2-yl)phenyl)((1S,4R,6R)-6-((5-(trifluoromethyl)pyridin-2-yl)oxy)-2-azabicyclo[2.2.1]heptan-2-yl)methanone]"
–,6.53,6.17,"O=C(c1ccccc1-n1nccn1)N1C[C@H]2C[C@@H](Oc3ncccc3C(F)(F)F)[C@@H]1C2 [Example 51, (2-(2H-1,2,3-triazol-2-yl)phenyl)((1S,4R,6R)-6-((3-(trifluoromethyl)pyridin-2-yl)oxy)-2-azabicyclo[2.2.1]heptan-2-yl)methanone]"
–,6.26,5.40,"Cc1ccc(-n2nccn2)c(C(=O)N2C[C@H]3C[C@@H](Oc4ncccc4C(F)(F)F)[C@@H]2C3)n1 [Example 52, (6-methyl-3-(2H-1,2,3-triazol-2-yl)pyridin-2-yl)((1S,4R,6R)-6-((3-(trifluoromethyl)pyridin-2-yl)oxy)-2-azabicyclo[2.2.1]heptan-2-yl)methanone]"
